Patent US20210060108A1, “INULA HELENIUM EXTRACTS FOR TREATING AND PREVENTING POLLUTION RELATED DAMAGE” (priority 2017, published 2021)

Test: Heavy metal (ferrous ion-Ferrozine) chelation assay
Format: biochemical
Conditions: Fe2+ chelation; calculated based on unpreserved extract dry weight
Protocol: The IC50 refers to the amount of extract required to chelate 50% of the available iron (II) in the assay. The lower the number, the higher the chelation power of an extract.
The ability of Inula extract to act as an anti-pollutant or antagonist of the adverse effects of pollutants and/or toxins in pollutants was further investigated in heavy metal chelation assays. Further to this objective, Inula extracts was tested in in vitro assay to assess its chelator power. In this assay, the ferrous ion is used as a model for heavy metals. The concentration of the ferrous iron-Ferrozine complex was measured by spectrophotometry (absorbance at 562 nm) to determine the Fe 2+-chelating ability of the extract or fraction. The reaction mixture, containing 2 Mm FeCl2 and 5 mM ferrozine was adjusted to 2 ml with bi-distilled water. The mixture was shaken and incubated for 10 min at room temperature. The absorbance of the mixture was measured at 562 nm against a blank EDTA was used as positive control. The choice of an internal reference may be adjusted in accordance with the heavy metal assay performed and such references are known in the art. Chelating power is expressed as an IC50 value (mg/ml) and reflects the concentration at which 50% of the available iron was chelated by, for example, supplemental extract added to the assay mix.

SMILES: O=C(O)CN(CCN(CC(=O)O)CC(=O)O)CC(=O)O [EDTA (reference), EDTA]
- IC50* (mg/ml DRY WEIGHT): 0.038 mg/ml DRY WEIGHT
